Measured values as given in BindingDB's records for patent US20250304549 (Sichuan Huiyu Pharmaceutical, 2025).

Tests used:
Histone deacetylase 1/8 = Histone deacetylase 1/8 (Homo sapiens, UniProt Q13547+Q9BY41); test: In Vitro Enzyme Inhibition Assay - HDAC
Protocol: (§1) The effect of the compound on the enzymatic activity of pan-HDAC and two isoforms (HDAC1 and HDAC8) was examined using the HDAC-Glo I/II Assay and Screening System assay to assess the level of inhibition of HDAC protease activity and selectivity in each isoform. The proteins and detection reagents were from the HDAC-Glo™ I/II Assay and Screening System (Promega). A 1 mM stock solution of the compound was prepared in DMSO and diluted in a 5-fold gradient to create a series of 8 concentrations, and a specific volume of the highest concentration was diluted 25 times with HDAC Buffer to obtain 4× working solution of the compound. […] The 384-well plate was then read on a multifunctional microplate reader, with the Luminescence channel selected to record Luminescence values (RLU).

[1] = biological target: Lysine-specific histone demethylase 1A (Homo sapiens, UniProt O60341); test: In Vitro Enzyme Inhibition Assay - LSD1
Protocol: Initially, a master solution of 90 μM test compound (dissolved in DMSO) was prepared and sequentially diluted with DMSO in a 5-fold concentration gradient to yield a total of 9 concentrations of the compound working solution 1 (90×). Subsequently these 9 concentrations of working solution 1 were sequentially diluted by a 30-fold concentration gradient, i.e., 2 μL of working solution 1 was aspirated and added to 58 μL of Buffer, mixed on a vortex mixer with sufficient shaking to yield 9 concentrations of the screening test compound working solution 2 (3×). […] The mixture was incubated at room temperature for 15 minutes. […] Afterward, 2 μL of a termination solution (containing 5.4 mM 2-PCPA) was added to each well, mixed evenly, and incubated for another 15 minutes. Finally 4 μL of a pre-mixed antibody solution of Eu-anti H3K4 (PerkinElmer, TRF0404-D) and allophycocyanin (Prozyme, PJ27S) (1:1) was added to each well, mixed evenly, and incubated for 60 minutes.

Histone deacetylase 8 = biological target: T1, Histone deacetylase 8 (Homo sapiens, UniProt Q9BY41); test: In Vitro Enzyme Inhibition Assay - HDAC
T1 sequence (Q9BY41 whole entry): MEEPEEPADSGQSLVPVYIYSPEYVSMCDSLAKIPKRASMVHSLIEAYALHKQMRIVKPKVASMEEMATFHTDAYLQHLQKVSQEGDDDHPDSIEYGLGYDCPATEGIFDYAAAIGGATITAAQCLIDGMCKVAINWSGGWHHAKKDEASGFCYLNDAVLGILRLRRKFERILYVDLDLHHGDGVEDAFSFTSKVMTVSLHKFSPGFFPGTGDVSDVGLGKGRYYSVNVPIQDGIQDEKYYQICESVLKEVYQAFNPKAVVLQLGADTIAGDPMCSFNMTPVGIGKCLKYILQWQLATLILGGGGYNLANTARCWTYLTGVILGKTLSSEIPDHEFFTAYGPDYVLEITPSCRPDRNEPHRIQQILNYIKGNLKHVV
Protocol: as §1

Histone deacetylase 1 = Histone deacetylase 1 (Homo sapiens, UniProt Q13547); test: In Vitro Enzyme Inhibition Assay - HDAC
Protocol: as §1

Sequence of Histone deacetylase 1/8 (Q13547 whole entry, one chain of several, canonical isoform): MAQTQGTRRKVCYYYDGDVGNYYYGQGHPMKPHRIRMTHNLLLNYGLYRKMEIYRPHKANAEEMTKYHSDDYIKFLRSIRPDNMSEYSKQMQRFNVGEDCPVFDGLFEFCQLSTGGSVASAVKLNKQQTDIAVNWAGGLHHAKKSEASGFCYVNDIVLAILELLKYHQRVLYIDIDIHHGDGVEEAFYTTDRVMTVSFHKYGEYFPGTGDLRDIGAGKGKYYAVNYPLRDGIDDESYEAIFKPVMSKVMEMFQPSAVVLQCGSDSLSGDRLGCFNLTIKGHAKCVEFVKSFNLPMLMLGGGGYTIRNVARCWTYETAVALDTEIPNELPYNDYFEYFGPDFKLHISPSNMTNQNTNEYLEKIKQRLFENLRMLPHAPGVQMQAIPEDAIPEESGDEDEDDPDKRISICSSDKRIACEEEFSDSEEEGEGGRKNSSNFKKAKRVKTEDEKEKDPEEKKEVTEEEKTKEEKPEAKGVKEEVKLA
Sequence of Histone deacetylase 1 (Q13547 whole entry): as the sequence (Q13547 whole entry, one chain of several, canonical isoform) above

| IC50 (Histone deacetylase 1/8) | IC50 [1] | IC50 (Histone deacetylase 8) | IC50 (Histone deacetylase 1) | Compound |
| --- | --- | --- | --- | --- |
| 0.114 µM | – | – | – | O=C(/C=C/c1ccc(CNC(=O)c2cc(CN[C@@H]3C[C@H]3c3ccc(F)cc3)nc(-c3ccc(-n4cccn4)cc3)n2)cc1)NO [US20250304549, Example 232] |
| 0.00105 µM | 0.00054 µM | 0.0589 µM | 0.0005 µM | COc1ccc(-c2cnc(N3CCCC(NCc4ccc(/C=C/C(=O)NO)cc4)CC3)c(C#N)c2-c2ccc(C#N)c(F)c2)cc1O (stereo not given) [US20250304549, Example 149] |
| 0.00159 µM | – | 0.157 µM | – | COc1ccc(-c2cnc(N3CCC(NCc4ccc(/C=C/C(=O)NO)cc4)CC3)c(F)c2-c2ccc(C#N)c(F)c2)cc1O [US20250304549, Example 76] |
| – | 0.0169 µM | 0.446 µM | 0.311 µM | COC1=C(OCCCCCCC(=O)NO)CC(C2=C(c3ccc(C#N)c(F)c3)N=C(N3CCC(N)CC3)N3C=CNC23)C=C1 (stereo not given) [US20250304549, Example 20] |
| – | 0.00041 µM | 0.118 µM | 0.00828 µM | CNC1CCN(C2N=CC(c3ccc(OCCCCCCC(=O)NO)c(O)c3)=C(c3ccc(C#N)c(F)c3)C2C#N)CC1 (stereo not given) [US20250304549, Example 24] |
| 0.0195 µM | 0.00801 µM | 0.0635 µM | 0.0106 µM | N#Cc1ccc(-c2c(-c3ccc(/C=C/C(=O)NO)c(O)c3)cnc(N3CCC(NCc4ccc(/C=C/C(=O)NO)cc4)CC3)c2C#N)cc1F [US20250304549, Example 90] |
| 0.00247 µM | 0.00105 µM | 0.0584 µM | 0.00043 µM | Cc1ccc(-c2cnc(N3CCC(NCc4cnc(/C=C/C(=O)NO)nc4)CC3)c(C#N)c2-c2ccc(C#N)c(F)c2)cc1O [US20250304549, Example 148] |
| 0.0517 µM | 0.00042 µM | 1.4 µM | – | COc1ccc(-c2cnc(N3CCC(NCc4ccc(/C=C/CC(=O)NO)cc4)CC3)c(C#N)c2-c2ccc(C#N)c(F)c2)cc1O [US20250304549, Example 169] |
| – | 0.00736 µM | – | – | COc1ccc(C2=C(C3C=NC(C#N)=CC3)C(C#N)C(N3CCC(NCc4ccc(/C=C/C(=O)NO)cc4)CC3)C=C2)cc1O (stereo not given) [US20250304549, Example 267] |
